For the experiment, the target named is Activated CDC42 kinase 1 (Homo sapiens, UniProt Q07912).

Experimental findings from BindingDB's records for patent US20240010634 (H. Lee Moffitt Cancer Center and Research Institute, 2024) are described below.

The structures appear in SMILES notation. pIC50: −log10 of the molar value.

Usually pIC50 stands for the negative decadic logarithm of the IC50, by convention in mol/L. Read a low pIC50 as a high IC50.

Activated CDC42 kinase 1, sequence (Q07912 whole entry): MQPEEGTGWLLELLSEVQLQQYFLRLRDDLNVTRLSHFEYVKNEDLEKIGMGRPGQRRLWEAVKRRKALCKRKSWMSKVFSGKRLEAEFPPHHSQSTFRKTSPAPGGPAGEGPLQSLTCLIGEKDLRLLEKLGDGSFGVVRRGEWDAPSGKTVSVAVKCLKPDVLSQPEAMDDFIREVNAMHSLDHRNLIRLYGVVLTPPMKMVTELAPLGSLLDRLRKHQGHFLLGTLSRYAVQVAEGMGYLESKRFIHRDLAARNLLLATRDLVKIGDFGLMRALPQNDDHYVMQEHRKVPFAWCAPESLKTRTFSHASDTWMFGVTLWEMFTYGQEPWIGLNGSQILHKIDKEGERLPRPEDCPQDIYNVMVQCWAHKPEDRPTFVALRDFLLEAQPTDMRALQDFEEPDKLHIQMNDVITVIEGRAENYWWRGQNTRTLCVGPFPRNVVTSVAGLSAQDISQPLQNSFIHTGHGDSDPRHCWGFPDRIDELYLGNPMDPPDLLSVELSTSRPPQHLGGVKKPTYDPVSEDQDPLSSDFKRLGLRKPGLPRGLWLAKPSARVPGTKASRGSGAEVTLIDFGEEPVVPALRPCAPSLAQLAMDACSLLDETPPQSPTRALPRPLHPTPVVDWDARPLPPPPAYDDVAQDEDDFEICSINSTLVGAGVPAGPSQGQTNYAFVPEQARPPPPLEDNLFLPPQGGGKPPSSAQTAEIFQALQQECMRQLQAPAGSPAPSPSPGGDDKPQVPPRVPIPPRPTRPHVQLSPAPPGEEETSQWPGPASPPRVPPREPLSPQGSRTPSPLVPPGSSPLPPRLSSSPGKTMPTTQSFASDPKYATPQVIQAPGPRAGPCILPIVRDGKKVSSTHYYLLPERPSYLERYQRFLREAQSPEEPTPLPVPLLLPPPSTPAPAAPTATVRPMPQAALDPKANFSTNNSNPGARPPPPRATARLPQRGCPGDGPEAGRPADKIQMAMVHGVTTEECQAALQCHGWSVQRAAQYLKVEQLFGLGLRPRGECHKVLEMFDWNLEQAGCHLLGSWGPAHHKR

`COc1cc(N2CCN(C)CC2)ccc1Nc1ncc(Cl)c(Nc2ccc(NS(C)(=O)=O)cc2)n1` [US20240010634, Example 33] gave a pIC50 of 7.59.
